Literature values, collected in US4285947A, “Aldehyde adducts of triamterene” (INTERx Research Corporation, priority 1980, dated 1981).
Values after ≈ are worked out from the molar mass of the structure shown.

Assays:
[1] = following the recommended clinical dose
[2] = not given; remark: listed apart in the source

For `Nc1nc(N)c2nc(-c3ccccc3)c(N)nc2n1` [triamterene, 2,4,7-triamino-6-phenylpteridine], the “plasma and urine concentration” value [1] is given as “extremely low”, the aqueous solubility is given as 45 µg/mL (≈ 178 µM) and the “solubility in lipid-like solvents” value [2] is given as “limited solubility”.
